The text below walks through data of US4113850A, “Composition for the diagnostic visualization of neoplastic tissues” (Solco Basel AG, priority 1974, dated 1978).

Where “and” joins values, the source holds several entries; their conditions need not be identical. Equal values may be shown once. Read-outs that look alike come from different tables or passages of the source.

For series [1] the following is noted: cited from earlier work; for Ray dose for the person examined: radiopharmaceuticals used up to now.
The test system of series [2] is neoplastic tissues (tumors and metastases). The conditions noted are these: radiopharmaceuticals used up to now; cited from earlier work.
Series [3] can be described thus: Stability of the complexes. The class given is physicochemical. The note with it: in solution.
The subject of series [4] is brain tumor. The conditions noted are these: cited from earlier work.
Series [5] relates to brain tumor. The conditions noted are these: literature sources 1-2 of Table 2, cited from earlier work.
For series [6] the following is noted: in vivo, cited from earlier work.

Consider `COC(CNC(N)=O)[CH2][203Hg][Cl]` (stereo not drawn) [^203 Hg-chlormerodrin], for which, in series [1], the “Ray dose for the person examined” value was “high ray dose”. In addition, in series [2], the Tumor affinity result is “low and uncertain tumor affinity”.
Consider “tin-technetium-isocitrate complex [Example 1]”, for which the Stability of complex entry in series [3] is “stable”.
For `[O]=[99Tc](=[O])(=[O])[O-]` [Example 99mTcO4, ^99m Tc-pertechnetate], the “Human external tumor brain quotient (in vivo)” value in the series on brain tumor [4] (literature sources 1-6 of Table 1, listed as 99mTcO.sbsb.4) was 1.7 : 1 and 1.3 : 1 and 1.2 - 2.5 : 1. Besides, the “Human internal tumor brain quotient (after autopsy or on an operation preparation)” value in the series on brain tumor [5] is recorded as 1.8 - 5.3 : 1; in the series on brain tumor [5] (listed as 99mTcO), 0 - 4.3 : 1. The “Ray dose of the critical organs: Blood” value in series [1] (Blood, hitherto used substances) was 17 - 47 mrad/mCurie. In addition, the “Ray dose of the critical organs: Colon” value in series [1] (Colon, hitherto used substances) is given as 150 - 290 mrad/mCurie. In addition, the “Ray dose of the critical organs: Stomach” value in series [1] (Stomach, hitherto used substances) is recorded as 40 - 320 mrad/mCurie. The “Ray dose of the critical organs: Thyroid” value in series [1] (Thyroid, hitherto used substances) was 100 - 270 mrad/mCurie. In addition, the Concentration in organs result in series [6] (listed as 99m Tc-pertechnetate) is “particularly high concentrations occur in the thyroid but also in the plexus chorioideus (brain), in the salivary glands and in the gastric mucosa”; in series [6] (listed as pertechnetate), “concentrates above all in the thyroid”.
Take `O=C([O-])CC(O)(CC(=O)[O-])C(=O)[O-].[67Ga+3]` [^67 Gallium citrate]: the “Ray dose for the person examined” value in series [1] is listed as “high ray dose”. Further, the Tumor affinity result in series [2] is “low and uncertain tumor affinity”.
Consider ^111 indium-citrate complex [Example 7], for which the Stability of complex entry in series [3] is recorded as “stable”.
`O=[75Se]([O-])[O-].[Na+].[Na+]` [^75 Se-sodium selenite]: the “Ray dose for the person examined” value in series [1] is on record as “high ray dose”. Further, the Tumor affinity result in series [2] is “low and uncertain tumor affinity”.
`COC([CH2][197Hg+])CNC(N)=O.[Cl-]` (stereo not drawn) [197Hg-Chlormerodrin, ^197 Hg-chlormerodrin]: the “Human external tumor brain quotient (in vivo)” value in the series with brain tumor [4] (literature sources 1-6 of Table 1) was 1.2 - 8.7 : 1 and 1.2 - 3.1 : 1. For the same compound, in series [1] (Kidney, hitherto used substances), the “Ray dose of the critical organs: Kidney” value was 4370 - 19400 mrad/mCurie. Further, the “Ray dose for the person examined” value in series [1] is “high ray dose”. In addition, in series [2], the Tumor affinity result was “low and uncertain tumor affinity”.
